Measurements taken from US7960410B2, “Method for treating insulin resistance, abdominal obesity, hypertension, hyperinsulinemia, and elevated blood lipids with a cortisol inhibitor” (Cortendo AB, priority 1994, dated 2011).
Several values for one entry are separate records, joined by “and”; a condition that tells them apart may be missing. Identical values can stand only once. Entries after “also recorded” stand apart in the source; their conditions may differ.

System: women with diabetes mellitus type II
Experiment: Clinical tests of women with diabetes mellitus type II treated with ketoconazole
Format: in vivo, human
Details: for Serum-ASAT / Serum-ALAT / GIR (glucose infusion rate during euglycemic glucose clamp), indicating insulin sensitivity / Fasting serum total cholesterol / Diastolic blood pressure measured after 5 min. in supine position, 2 measurements averaged / Systolic blood pressure measured after 5 min. in supine position, 2 measurements averaged / Fasting blood glucose: after treatment
Experimental: We have investigated a group of people with diabetes mellitus type II.
Group 1 consists of 3 patients (mean age: 46 years) treated with ketoconazole for 2 weeks, administered orally 22:00 in the evening in the dose of 400 mg.
Group 2 consists of 5 patients (mean age: 51 years) treated with ketoconazole for 6 weeks, administered orally 22:00 in the evening in the dose of 400 mg. Results are expressed as mean values within groups.

[1] = diabetes mellitus type II patients, after vs before treatment

Serum-ASAT (Group 1: 400 mg orally 22:00 for 2 weeks, group mean (before: 0.36)): 0.33 μkat/L
Serum-ALAT (Group 1: 400 mg orally 22:00 for 2 weeks, group mean (before: 0.61)): 0.52 μkat/L
Serum-ASAT (Group 2: 400 mg orally 22:00 for 6 weeks, group mean (before: 0.26)): 0.25 μkat/L
Serum-ALAT (Group 2: 400 mg orally 22:00 for 6 weeks, group mean (before: 0.40)): 0.37 μkat/L
SMILES: CC(=O)N1CCN(c2ccc(OCC3COC(Cn4ccnc4)(c4ccc(Cl)cc4Cl)O3)cc2)CC1 (stereo not shown) [ketoconazole]
GIR (glucose infusion rate during euglycemic glucose clamp), indicating insulin sensitivity (Group 1: 400 mg orally 22:00 for 2 weeks, group mean (before: 0.9)): 1.85 mg glucose per minute divided by lean body mass
Fasting serum total cholesterol (Group 1: 400 mg orally 22:00 for 2 weeks, group mean (before: 5.80)): 5.67 mmol/L
Diastolic blood pressure measured after 5 min. in supine position, 2 measurements averaged (Group 1: 400 mg orally 22:00 for 2 weeks, group mean (before: 70)): 70 mm Hg
Systolic blood pressure measured after 5 min. in supine position, 2 measurements averaged (Group 1: 400 mg orally 22:00 for 2 weeks, group mean (before: 140)): 135 mm Hg
Fasting blood glucose (Group 1: 3 patients, 400 mg orally 22:00 for 2 weeks, group mean (before: 10.20)): 8.77 mmol/L
GIR (glucose infusion rate during euglycemic glucose clamp), indicating insulin sensitivity (Group 2: 400 mg orally 22:00 for 6 weeks, group mean (before: 2.97)): 4.32 mg glucose per minute divided by lean body mass
Fasting serum total cholesterol (Group 2: 400 mg orally 22:00 for 6 weeks, group mean (before: 4.80)): 4.10 mmol/L
Diastolic blood pressure measured after 5 min. in supine position, 2 measurements averaged (Group 2: 400 mg orally 22:00 for 6 weeks, group mean (before: 75)): 72 mm Hg
Systolic blood pressure measured after 5 min. in supine position, 2 measurements averaged (Group 2: 400 mg orally 22:00 for 6 weeks, group mean (before: 125)): 123 mm Hg
Fasting blood glucose (Group 2: 5 patients, 400 mg orally 22:00 for 6 weeks, group mean (before: 7.20)): 7.10 mmol/L
Effect on blood pressure (in words) [1]: decreasing blood pressure values
Effect on insulin sensitivity / insulin resistance (in words), euglycemic glucose clamp [1]: a reduction of the insulin insensitivity (resistance); also recorded: improved insulin sensitivity; also recorded: a remarkable improvement of insulin sensitivity
Effect on plasma cholesterol levels (in words) [1]: Reduced cholesterol levels in the plasma
Effect on blood glucose (in words) (diabetes mellitus type II patients, after vs before treatment for 2 and 6 weeks, fasting or 2 hours after i.v. glucose infusion): lower blood glucose after treatment compared to before treatment; also recorded: a decrease in blood glucose
Blood glucose 2 hours after start of an i.v. glucose infusion (human, in vivo): 7.90 mmol/L and 5.76 mmol/L
